Marks after values point to notes of the source that are not given here.
Tests used:
lead-exposed mice [1] = experiment: Lead levels of lead-exposed mice; assay type: in vivo; conditions: mice fed 1 g/L lead acetate solution; compared with lead model and negative control groups, FIG. 3
Source text: 40 healthy male Kunming mice of 20-25 g are randomly divided into four groups: namely negative control group, lead acetate model group, Lactobacillus plantarum CCFM8661 treatment group, and calcium disodium edetate treatment group as positive control. The mice of negative control group are fed with ordinary drinking water and the mice of remaining three groups are fed with 1 g/L lead acetate solution to obtain the lead exposure models. The mice of Lactobacillus plantarum CCFM8661 treatment group are daily fed with the 2.0×10^9 cfu/mL skim milk suspension prepared in Example 3 of Specifications, and the mice of positive control treatment group are intraperitoneally injected with 5 g/L disodium edetate calcium agent every day. The blood of mice is collected at the end of the experiment, and the liver, stomach and kidney are collected after these mice are sacrificed.
40 healthy male Kunming mice of 20-25 g are taken and randomly divided into four groups: namely negative control group, lead acetate model group, Lactobacillus plantarum CCFM8661 treatment group and calcium disodium edetate treatment group as positive control. […] These organs are processed in accordance with above digestion processes, and then the lead levels can be determined with above atomic absorption spectrophotometry of Example 2.

lead-exposed mice [2] = experiment: Oxidative damage caused by lead exposure (liver GSH and MDA); assay type: in vivo; conditions: mice fed 1 g/L lead acetate solution, daily treatment
Source text: 40 healthy male Kunming mice of 20-25 g are taken and randomly divided into four groups: namely negative control group, lead acetate model group, Lactobacillus plantarum CCFM8661 treatment group and calcium disodium edetate (EDTANa2Ca) treatment group as positive control. The mice of negative control group are fed with ordinary drinking water and the mice of remaining three groups are fed with 1 g/L lead acetate solution to obtain the lead exposure models. The mice of Lactobacillus plantarum CCFM8661 treatment group are daily fed with the 2.0×10^9 cfu/mL skim milk suspension prepared in Example 3 of this Specification, and the mice of positive control treatment group are intraperitoneally injected with 5 g/L disodium edetate calcium agent every day. The blood is taken at the end of the experiment, and the livers are taken out after these mice are sacrificed. These organs are processed with the Ellmam method (Ellmam, G. C. Tissue sulfhydryl groups. Archives of biochemistry and biophysics 82(1): 70-77.) and the malondialdehyde (MDA) kit of Nanjing Jiancheng Bioengineering Institute to determine the glutathione (GSH) and MDA levels.

Q: How did the “lead levels of mice blood, liver, stomach and kidney” value (lead-exposed mice [1]) turn out when `O=C([O-])CN(CCN(CC(=O)[O-])CC(=O)[O-])CC(=O)[O-].[Ca+2].[Na+].[Na+]` [EDTANa2Ca, calcium disodium edetate] was run?
A: Its value is “higher than that of the negative control group, but lower than that of the lead model control group”.

Q: What about the “GSH (liver)” value (lead-exposed mice [2]) of the same compound?
A: Its value is 2.15 ± 0.50^c mg/g protein.

Q: And the “MDA (liver)” value (lead-exposed mice [2])?
A: The value was 0.15 ± 0.03^c nmol/mg protein.

Source: US9320766B2, “Protective effects and application of a lactobacillus plantarum on the alleviation of lead toxicity” (priority 2012, dated 2016)
